Test results reported in patent US9181255B2, “Fused heteroaromatic pyrrolidinones as SYK inhibitors” (Takeda Pharmaceutical Company Limited, priority 2009, dated 2015).
Where a name gives a salt, the structure may show the parent alone.

target: SYK (Homo sapiens, UniProt P43405); assay: SYK inhibition assay: SYK-mediated phosphorylation of FAM-labeled substrate (Caliper microfluidic); assay type: biochemical; details: SYK kinase domain (residues 356-635); 5FAM-KKKKEEIYFFFG-NH2 substrate; ATP; RT 60 min; pIC50 = -log(IC50), IC50 molar

`N[C@H]1COCC[C@H]1Nc1nc(-c2cnn(C(F)F)c2)c2c(c1F)CNC2=O` [Example 93, 6-((3R,4R)-3-Aminotetrahydro-2H-pyran-4-ylamino)-4-(1-(difluoromethyl)-1H-pyrazol-4-yl)-7-fluoro-1H-pyrrolo[3,4-c]pyridin-3(2H)-one] was tested, and the “SYK Inhibition (pIC50)” value was 8.0.

same assay, conditions: read-out: SYK Inhibition (pIC50) (converted)

Going from `N[C@H]1CCCC[C@H]1Nc1nc2c(c(Nc3ccc4cn[nH]c4c3)n1)C(=O)NC2` [Example 4, 4-(1H-Indazol-6-ylamino)-2-((1R,2S)-2-aminocyclohexylamino)-6,7-dihydro-5H-pyrrolo[3,4-c]pyrimidin-5-one] to `N[C@H]1CCCC[C@H]1Nc1nc2c(c(-c3cc4ccccc4[nH]3)n1)C(=O)NC2` [Example 47, 2-((1R,2S)-2-Aminocyclohexylamino)-4-(1H-indol-2-yl)-6,7-dihydro-5H-pyrrolo[3,4-c]pyrimidin-5-one], the IC50 falls from 0.0158 µM to 0.00251 µM (6.3-fold).

Going from `CS(=O)(=O)c1cccc(Nc2nc(N[C@@H]3CCC[C@@H]3N)cc3c2C(=O)NC3)c1` [Example 34, 6-((1R,2S)-2-Aminocyclopentylamino)-4-(3-(methylsulfonyl)phenylamino)-1H-pyrrolo[3,4-c]pyridin-3(2H)-one (HCl salt)] to `CC(C)C[C@@H](Nc1cc2c(c(Nc3cccc(S(C)(=O)=O)c3)n1)C(=O)NC2)C(N)=O` [Example 35, (R)-4-Methyl-2-(4-(3-(methylsulfonyl)phenylamino)-3-oxo-2,3-dihydro-1H-pyrrolo[3,4-c]pyridin-6-ylamino)pentanamide], the IC50 falls from 0.316 µM to 0.0501 µM (6.3-fold).

Going from `CC(C)C[C@@H](Nc1nc(-c2cnn(C(F)F)c2)c2c(c1F)CNC2=O)C(N)=O` [Example 71, (R)-2-(4-(1-(Difluoromethyl)-1H-pyrazol-4-yl)-7-fluoro-3-oxo-2,3-dihydro-1H-pyrrolo[3,4-c]pyridin-6-ylamino)-4-methylpentanamide] to `CC(C)C[C@@H](Nc1nc(-c2cnn(C3CC3)c2)c2c(c1F)CNC2=O)C(N)=O` [Example 72, (R)-2-(4-(1-Cyclopropyl-1H-pyrazol-4-yl)-7-fluoro-3-oxo-2,3-dihydro-1H-pyrrolo[3,4-c]pyridin-6-ylamino)-4-methylpentanamide], the IC50 rises from 0.00794 µM to 0.0316 µM (4-fold).

Compared with `Cc1csc(-c2nc(N[C@@H]3CCCC[C@@H]3N)c(F)c3c2C(=O)NC3)c1` [Example 105, 6-((1R,2S)-2-Aminocyclohexylamino)-7-fluoro-4-(4-methylthiophen-2-yl)-1H-pyrrolo[3,4-c]pyridin-3(2H)-one], `Cc1csc(-c2nc(N[C@@H]3CCOC[C@@H]3N)c(F)c3c2C(=O)NC3)c1` [Example 104, 6-((3R,4R)-3-Aminotetrahydro-2H-pyran-4-ylamino)-7-fluoro-4-(4-methylthiophen-2-yl)-1H-pyrrolo[3,4-c]pyridin-3(2H)-one] is 2-fold higher in IC50: 0.001 µM for the first, 0.002 µM for the second.

Compared with `N[C@H]1COCC[C@H]1Nc1nc(-c2cnn(C(F)F)c2)c2c(c1F)CNC2=O` [Example 125, 6-((3R,4R)-3-Aminotetrahydro-2H-pyran-4-ylamino)-4-(1-(difluoromethyl)-1H-pyrazol-4-yl)-7-fluoro-1H-pyrrolo[3,4-c]pyridin-3(2H)-one], `N[C@H]1COCC[C@H]1Nc1nc(-c2cncs2)c2c(c1F)CNC2=O` [Example 128, 6-((3R,4R)-3-Aminotetrahydro-2H-pyran-4-ylamino)-7-fluoro-4-(thiazol-5-yl)-1H-pyrrolo[3,4-c]pyridin-3(2H)-one] is 2-fold higher in IC50: 0.01 µM for the first, 0.02 µM for the second.

Going from `CC(C)C[C@@H](Nc1nc(-c2coc3ccccc23)c2c(c1F)CNC2=O)C(N)=O` [Example 73, (R)-2-(4-(Benzofuran-3-yl)-7-fluoro-3-oxo-2,3-dihydro-1H-pyrrolo[3,4-c]pyridin-6-ylamino)-4-methylpentanamide] to `CC(C)C[C@@H](Nc1nc(-c2ccco2)c2c(c1F)CNC2=O)C(N)=O` [Example 113, (R)-2-(7-Fluoro-4-(furan-2-yl)-3-oxo-2,3-dihydro-1H-pyrrolo[3,4-c]pyridin-6-ylamino)-4-methylpentanamide], the IC50 rises from 0.00794 µM to 0.2 µM (25-fold).

Going from `Cn1cc(-c2nc(N[C@@H]3CCCC[C@@H]3N)nc3c2C(=O)NC3)cn1` [Example 14, 2-((1R,2S)-2-Aminocyclohexylamino)-4-(1-methyl-1H-pyrazol-4-yl)-6,7-dihydro-5H-pyrrolo[3,4-d]pyrimidin-5-one] to `Cn1cc(-c2nc(N[C@@H]3CCCC[C@@H]3N)c(Cl)c3c2C(=O)NC3)cn1` [Example 29, 6-((1R,2S)-2-Aminocyclohexylamino)-7-chloro-4-(1-methyl-1H-pyrazol-4-yl)-1H-pyrrolo[3,4-c]pyridin-3(2H)-one], the IC50 falls from 0.126 µM to 0.00316 µM (40-fold).

Compared with `COC[C@H](N)CNc1cc2c(c(-c3cnn(C)c3)n1)C(=O)NC2` [Example 91, (R)-6-(2-Amino-3-methoxypropylamino)-4-(1-methyl-1H-pyrazol-4-yl)-1H-pyrrolo[3,4-c]pyridin-3(2H)-one], `COC[C@H](N)CNc1nc(-c2cnn(C)c2)c2c(c1F)CNC2=O` [Example 101, (R)-6-(2-Amino-3-methoxypropylamino)-7-fluoro-4-(1-methyl-1H-pyrazol-4-yl)-1H-pyrrolo[3,4-c]pyridin-3(2H)-one] is 4-fold lower in IC50: 0.251 µM for the first, 0.0631 µM for the second.

`CC(C)C[C@@H](Nc1nc(-c2cccs2)c2c(c1F)CNC2=O)C(N)=O` [Example 126, (R)-2-(7-Fluoro-3-oxo-4-(thiophen-2-yl)-2,3-dihydro-1H-pyrrolo[3,4-c]pyridin-6-ylamino)-4-methylpentanamide] and `CC(C)C[C@@H](Nc1nc(-c2ccc(C#N)s2)c2c(c1F)CNC2=O)C(N)=O` [Example 116, (R)-2-(4-(5-Cyanothiophen-2-yl)-7-fluoro-3-oxo-2,3-dihydro-1H-pyrrolo[3,4-c]pyridin-6-ylamino)-4-methylpentanamide] are the same in IC50: 0.00794 µM for the first, 0.00794 µM for the second.

First: N[C@@H]1[C@H](Nc2nc(-c3cnn(C4CC4)c3)c3c(c2F)CNC3=O)CCCC1(F)F (relative stereo) [Example 69, 6-(cis-2-amino-3,3-difluorocyclohexylamino)-4-(1-cyclopropyl-1H-pyrazol-4-yl)-7-fluoro-1H-pyrrolo[3,4-c]pyridin-3(2H)-one]
Second: Cn1cc(-c2nc(N[C@@H]3CC(F)(F)C[C@@H]3N)c(F)c3c2C(=O)NC3)cn1 (relative stereo) [Example 66, 6-(cis-2-Amino-4,4-difluorocyclopentylamino)-7-fluoro-4-(1-methyl-1H-pyrazol-4-yl)-1H-pyrrolo[3,4-c]pyridin-3(2H)-one]
The IC50 of the first is 3.2-fold lower: 0.158 µM for the first, 0.501 µM for the second.

Compared with `CCOC[C@H](N)CNc1cc2c(c(Nc3cccc(C)c3)n1)C(=O)NC2` [Example 54, (R)-6-(2-Amino-3-ethoxypropylamino)-4-(m-tolylamino)-1H-pyrrolo[3,4-c]pyridin-3(2H)-one], `CCOC[C@H](N)CNc1nc(Nc2cccc(C)c2)c2c(c1F)CNC2=O` [Example 55, (R)-6-(2-Amino-3-ethoxypropylamino)-7-fluoro-4-(m-tolylamino)-1H-pyrrolo[3,4-c]pyridin-3(2H)-one] is 16-fold lower in IC50: 0.251 µM for the first, 0.0158 µM for the second.

First: N[C@H]1CCCC[C@H]1Nc1nc(-c2coc3ccccc23)c2c(c1F)CNC2=O [Example 50, 6-((1R,2S)-2-Aminocyclohexylamino)-4-(benzofuran-3-yl)-7-fluoro-1H-pyrrolo[3,4-c]pyridin-3(2H)-one]
Second: Cc1cccc(Nc2nc(N[C@@H]3CCCC[C@@H]3N)c(-c3ccccc3)c3c2C(=O)NC3)c1 [Example 87]
The IC50 of the first is 25-fold lower: 0.00251 µM for the first, 0.0631 µM for the second.

First: Cc1cccc(Nc2nc(N3CCCC(N)C3)nc3c2C(=O)NC3)c1 (stereo not drawn) [Example 12, 2-(3-Aminopiperidin-1-yl)-4-(m-tolylamino)-6,7-dihydro-5H-pyrrolo[3,4-d]pyrimidin-5-one]
Second: Cc1cccc(Nc2nc(N3CCC(N)C3)nc3c2C(=O)NC3)c1 (stereo not drawn) [Example 45, 2-(3-Aminopyrrolidin-1-yl)-4-(m-tolylamino)-6,7-dihydro-5H-pyrrolo[3,4-d]pyrimidin-5-one]
The IC50 of the first is 2.5-fold higher: 2 µM for the first, 0.794 µM for the second.

Compared with `Cc1cccc(Nc2nc(NCCN)nc3c2C(=O)NC3)c1` [Example 40, 2-(2-Aminoethylamino)-4-(m-tolylamino)-6,7-dihydro-5H-pyrrolo[3,4-d]pyrimidin-5-one], `Cc1cccc(Nc2nc(NCC(C)(C)N)nc3c2C(=O)NC3)c1` [Example 41, 2-(2-Amino-2-methylpropylamino)-4-(m-tolylamino)-6,7-dihydro-5H-pyrrolo[3,4-c]pyrimidin-5-one] is 5-fold higher in IC50: 0.251 µM for the first, 1.26 µM for the second.

Compared with `COC[C@H](N)CNc1nc(Nc2cccc(C)c2)c2c(c1F)CNC2=O` [Example 79, (R)-6-(2-Amino-3-methoxypropylamino)-7-fluoro-4-(m-tolylamino)-1H-pyrrolo[3,4-c]pyridin-3(2H)-one], `C=CC(=O)c1c(N[C@@H]2CCCC[C@@H]2N)nc(Nc2cccc(C)c2)c2c1CNC2=O` [Example 80, 7-Acryloyl-6-((1R,2S)-2-aminocyclohexylamino)-4-(m-tolylamino)-1H-pyrrolo[3,4-c]pyridin-3(2H)-one] is 160-fold higher in IC50: 0.02 µM for the first, 3.16 µM for the second.

First: Cc1cc(-c2nc(N[C@@H]3CCOC[C@@H]3N)c(F)c3c2C(=O)NC3)sn1 [Example 132, 6-((3R,4R)-3-Aminotetrahydro-2H-pyran-4-ylamino)-7-fluoro-4-(3-methylisothiazol-5-yl)-1H-pyrrolo[3,4-c]pyridin-3(2H)-one]
Second: Cc1ncc(-c2nc(N[C@@H]3CCOC[C@@H]3N)c(F)c3c2C(=O)NC3)s1 [Example 133, 6-((3R,4R)-3-Aminotetrahydro-2H-pyran-4-ylamino)-7-fluoro-4-(2-methylthiazol-5-yl)-1H-pyrrolo[3,4-c]pyridin-3(2H)-one]
The IC50 of the first is 6.3-fold lower: 0.00398 µM for the first, 0.0251 µM for the second.

First: CCN1CCN(c2nc3c(c(Nc4cccc(C)c4)n2)C(=O)NC3)CC1 [Example 9, 2-(4-Ethylpiperazin-1-yl)-4-(m-tolylamino)-6,7-dihydro-5H-pyrrolo[3,4-d]pyrimidin-5-one]
Second: Cc1cccc(Nc2nc(N3CCCCC3CN)nc3c2C(=O)NC3)c1 (stereo not drawn) [Example 32, 2-(2-(Aminomethyl)piperidin-1-yl)-4-(m-tolylamino)-6,7-dihydro-5H-pyrrolo[3,4-c]pyrimidin-5-one]
The IC50 of the first is 2-fold higher: 7.94 µM for the first, 3.98 µM for the second.

Molecule `Cc1cccc(Nc2nc(N[C@@H]3CCCC[C@@H]3N(C)C)nc3c2C(=O)NC3)c1` [Example 37, 2-((1R,2S)-2-(Dimethylamino)cyclohexylamino)-4-(m-tolylamino)-6,7-dihydro-5H-pyrrolo[3,4-d]pyrimidin-5-one] has an IC50 of 1 µM.
